Laboratory results from PubChem BioAssay (NCI).
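Compound exposure: 48 hours, 5 concentrations, 96-well plates. Definition used: TGI = concentration required for complete inhibition of growth.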

Tests used:
Assay in all cases: NCI anticancer screen, dose series, 48 h
786-0 renal = tested on: 786-0 renal
A498 renal = tested on: A498 renal
A549 NSCLC = tested on: A549 NSCLC
ACHN renal = tested on: ACHN renal
BT-549 breast = tested on: BT-549 breast
CAKI-1 renal = tested on: CAKI-1 renal
CCRF-CEM leukemia = tested on: CCRF-CEM leukemia
COLO 205 colon = tested on: COLO 205 colon
DU-145 prostate = tested on: DU-145 prostate
EKVX NSCLC = tested on: EKVX NSCLC
HCT-116 colon = tested on: HCT-116 colon
HCT-15 colon = tested on: HCT-15 colon
HL-60(TB) leukemia = tested on: HL-60(TB) leukemia
HOP-62 NSCLC = tested on: HOP-62 NSCLC
HOP-92 NSCLC = tested on: HOP-92 NSCLC
HS 578T breast = tested on: HS 578T breast
HT29 colon = tested on: HT29 colon
IGROV1 ovarian = tested on: IGROV1 ovarian
K-562 leukemia = tested on: K-562 leukemia
KM12 colon = tested on: KM12 colon
LOX IMVI melanoma = tested on: LOX IMVI melanoma
M14 melanoma = tested on: M14 melanoma
MALME-3M melanoma = tested on: MALME-3M melanoma
MCF7 breast = tested on: MCF7 breast
MDA-MB-231 breast = tested on: MDA-MB-231 breast
MDA-MB-435 = tested on: MDA-MB-435
MDA-N = tested on: MDA-N
MOLT-4 leukemia = tested on: MOLT-4 leukemia
NCI-H226 lung = tested on: NCI-H226 lung
NCI-H23 lung = tested on: NCI-H23 lung
NCI-H460 lung = tested on: NCI-H460 lung
NCI/ADR-RES ovarian = tested on: NCI/ADR-RES ovarian
OVCAR-3 ovarian = tested on: OVCAR-3 ovarian
OVCAR-4 ovarian = tested on: OVCAR-4 ovarian
OVCAR-5 ovarian = tested on: OVCAR-5 ovarian
OVCAR-8 ovarian = tested on: OVCAR-8 ovarian
PC-3 prostate = tested on: PC-3 prostate
RPMI-8226 leukemia = tested on: RPMI-8226 leukemia
RXF 393 renal = tested on: RXF 393 renal
SF-268 CNS = tested on: SF-268 CNS
SF-295 CNS = tested on: SF-295 CNS
SF-539 CNS = tested on: SF-539 CNS
SK-MEL-28 melanoma = tested on: SK-MEL-28 melanoma
SK-MEL-5 melanoma = tested on: SK-MEL-5 melanoma
SK-OV-3 ovarian = tested on: SK-OV-3 ovarian
SN12C renal = tested on: SN12C renal
SNB-19 CNS = tested on: SNB-19 CNS
SNB-75 CNS = tested on: SNB-75 CNS
SW-620 colon = tested on: SW-620 colon
T-47D breast = tested on: T-47D breast
TK-10 renal = tested on: TK-10 renal
U251 CNS = tested on: U251 CNS
UACC-257 melanoma = tested on: UACC-257 melanoma
UACC-62 melanoma = tested on: UACC-62 melanoma
UO-31 renal = tested on: UO-31 renal
HCC-2998 colon = tested on: HCC-2998 colon
NCI-H522 lung = tested on: NCI-H522 lung
SK-MEL-2 melanoma = tested on: SK-MEL-2 melanoma

SMILES: CC(C)(C)c1ccc2c(c1)C(=O)c1ccccc1C2=O
- TGI (786-0 renal): > 100 µM
- TGI (A498 renal): > 100 µM
- TGI (A549 NSCLC): > 100 µM
- TGI (ACHN renal): > 100 µM
- TGI (BT-549 breast): > 100 µM
- TGI (CAKI-1 renal): > 100 µM
- TGI (CCRF-CEM leukemia): > 100 µM
- TGI (COLO 205 colon): 60.3 µM
- TGI (DU-145 prostate): > 100 µM
- TGI (EKVX NSCLC): 75.9 µM
- TGI (HCT-116 colon): > 100 µM
- TGI (HCT-15 colon): > 100 µM
- TGI (HL-60(TB) leukemia): > 100 µM
- TGI (HOP-62 NSCLC): > 100 µM
- TGI (HOP-92 NSCLC): 85 µM
- TGI (HS 578T breast): > 100 µM
- TGI (HT29 colon): 68.8 µM
- TGI (IGROV1 ovarian): > 100 µM
- TGI (K-562 leukemia): > 100 µM
- TGI (KM12 colon): > 100 µM
- TGI (LOX IMVI melanoma): > 100 µM
- TGI (M14 melanoma): > 100 µM
- TGI (MALME-3M melanoma): > 100 µM
- TGI (MCF7 breast): 66.3 µM
- TGI (MDA-MB-231 breast): > 100 µM
- TGI (MDA-MB-435): > 100 µM
- TGI (MDA-N): > 100 µM
- TGI (MOLT-4 leukemia): 65.8 µM
- TGI (NCI-H226 lung): 92.6 µM
- TGI (NCI-H23 lung): > 100 µM
- TGI (NCI-H460 lung): > 100 µM
- TGI (NCI/ADR-RES ovarian): > 100 µM
- TGI (OVCAR-3 ovarian): > 100 µM
- TGI (OVCAR-4 ovarian): > 100 µM
- TGI (OVCAR-5 ovarian): > 100 µM
- TGI (OVCAR-8 ovarian): > 100 µM
- TGI (PC-3 prostate): > 100 µM
- TGI (RPMI-8226 leukemia): > 100 µM
- TGI (RXF 393 renal): 80 µM
- TGI (SF-268 CNS): > 100 µM
- TGI (SF-295 CNS): > 100 µM
- TGI (SF-539 CNS): > 100 µM
- TGI (SK-MEL-28 melanoma): > 100 µM
- TGI (SK-MEL-5 melanoma): 40.2 µM
- TGI (SK-OV-3 ovarian): > 100 µM
- TGI (SN12C renal): > 100 µM
- TGI (SNB-19 CNS): > 100 µM
- TGI (SNB-75 CNS): 87 µM
- TGI (SW-620 colon): > 100 µM
- TGI (T-47D breast): > 100 µM
- TGI (TK-10 renal): > 100 µM
- TGI (U251 CNS): > 100 µM
- TGI (UACC-257 melanoma): > 100 µM
- TGI (UACC-62 melanoma): > 100 µM
- TGI (UO-31 renal): > 100 µM

SMILES: COc1cc2oc(-c3ccc4c(c3)OCO4)c(OC)c(=O)c2c(OC)c1OC
- TGI (786-0 renal): > 100 µM
- TGI (A498 renal): > 100 µM
- TGI (A549 NSCLC): > 100 µM
- TGI (ACHN renal): > 100 µM
- TGI (BT-549 breast): > 100 µM
- TGI (CAKI-1 renal): > 100 µM
- TGI (CCRF-CEM leukemia): > 100 µM
- TGI (COLO 205 colon): > 100 µM
- TGI (DU-145 prostate): > 100 µM
- TGI (EKVX NSCLC): > 100 µM
- TGI (HCC-2998 colon): > 100 µM
- TGI (HCT-116 colon): > 100 µM
- TGI (HCT-15 colon): > 100 µM
- TGI (HL-60(TB) leukemia): > 100 µM
- TGI (HOP-62 NSCLC): 93 µM
- TGI (HOP-92 NSCLC): 39.8 µM
- TGI (HS 578T breast): > 100 µM
- TGI (HT29 colon): > 100 µM
- TGI (IGROV1 ovarian): > 100 µM
- TGI (K-562 leukemia): > 100 µM
- TGI (KM12 colon): > 100 µM
- TGI (LOX IMVI melanoma): > 100 µM
- TGI (M14 melanoma): > 100 µM
- TGI (MALME-3M melanoma): > 100 µM
- TGI (MCF7 breast): > 100 µM
- TGI (MDA-MB-231 breast): > 100 µM
- TGI (MDA-MB-435): > 100 µM
- TGI (MDA-N): > 100 µM
- TGI (MOLT-4 leukemia): > 100 µM
- TGI (NCI-H226 lung): > 100 µM
- TGI (NCI-H23 lung): > 100 µM
- TGI (NCI-H460 lung): > 100 µM
- TGI (NCI-H522 lung): > 100 µM
- TGI (NCI/ADR-RES ovarian): > 100 µM
- TGI (OVCAR-3 ovarian): > 100 µM
- TGI (OVCAR-4 ovarian): > 100 µM
- TGI (OVCAR-5 ovarian): > 100 µM
- TGI (OVCAR-8 ovarian): > 100 µM
- TGI (PC-3 prostate): > 100 µM
- TGI (RXF 393 renal): > 100 µM
- TGI (SF-268 CNS): 99.5 µM
- TGI (SF-295 CNS): > 100 µM
- TGI (SF-539 CNS): > 100 µM
- TGI (SK-MEL-2 melanoma): > 100 µM
- TGI (SK-MEL-28 melanoma): > 100 µM
- TGI (SK-MEL-5 melanoma): > 100 µM
- TGI (SK-OV-3 ovarian): > 100 µM
- TGI (SN12C renal): > 100 µM
- TGI (SNB-19 CNS): > 100 µM
- TGI (SNB-75 CNS): 94 µM
- TGI (SW-620 colon): > 100 µM
- TGI (T-47D breast): > 100 µM
- TGI (TK-10 renal): > 100 µM
- TGI (U251 CNS): > 100 µM
- TGI (UACC-257 melanoma): > 100 µM
- TGI (UACC-62 melanoma): > 100 µM
- TGI (UO-31 renal): > 100 µM

SMILES: Nc1ncnc2nc(N3CCN(CCO)CC3)[nH]c12
- TGI (786-0 renal): > 100 µM
- TGI (A498 renal): > 100 µM
- TGI (A549 NSCLC): > 100 µM
- TGI (ACHN renal): > 100 µM
- TGI (BT-549 breast): > 100 µM
- TGI (CAKI-1 renal): > 100 µM
- TGI (CCRF-CEM leukemia): > 100 µM
- TGI (COLO 205 colon): > 100 µM
- TGI (DU-145 prostate): > 100 µM
- TGI (EKVX NSCLC): > 100 µM
- TGI (HCC-2998 colon): > 100 µM
- TGI (HCT-116 colon): > 100 µM
- TGI (HCT-15 colon): > 100 µM
- TGI (HL-60(TB) leukemia): > 100 µM
- TGI (HOP-62 NSCLC): > 100 µM
- TGI (HS 578T breast): > 100 µM
- TGI (HT29 colon): > 100 µM
- TGI (IGROV1 ovarian): > 100 µM
- TGI (K-562 leukemia): > 100 µM
- TGI (KM12 colon): > 100 µM
- TGI (LOX IMVI melanoma): > 100 µM
- TGI (M14 melanoma): > 100 µM
- TGI (MALME-3M melanoma): > 100 µM
- TGI (MCF7 breast): > 100 µM
- TGI (MDA-MB-231 breast): > 100 µM
- TGI (MDA-MB-435): > 100 µM
- TGI (MDA-N): > 100 µM
- TGI (MOLT-4 leukemia): > 100 µM
- TGI (NCI-H226 lung): > 100 µM
- TGI (NCI-H23 lung): > 100 µM
- TGI (NCI-H460 lung): > 100 µM
- TGI (NCI-H522 lung): > 100 µM
- TGI (NCI/ADR-RES ovarian): > 100 µM
- TGI (OVCAR-3 ovarian): > 100 µM
- TGI (OVCAR-4 ovarian): > 100 µM
- TGI (OVCAR-5 ovarian): > 100 µM
- TGI (OVCAR-8 ovarian): > 100 µM
- TGI (PC-3 prostate): > 100 µM
- TGI (RPMI-8226 leukemia): > 100 µM
- TGI (RXF 393 renal): > 100 µM
- TGI (SF-268 CNS): > 100 µM
- TGI (SF-295 CNS): > 100 µM
- TGI (SF-539 CNS): > 100 µM
- TGI (SK-MEL-2 melanoma): > 100 µM
- TGI (SK-MEL-28 melanoma): > 100 µM
- TGI (SK-MEL-5 melanoma): > 100 µM
- TGI (SK-OV-3 ovarian): > 100 µM
- TGI (SN12C renal): > 100 µM
- TGI (SNB-19 CNS): > 100 µM
- TGI (SW-620 colon): > 100 µM
- TGI (T-47D breast): > 100 µM
- TGI (TK-10 renal): > 100 µM
- TGI (U251 CNS): > 100 µM
- TGI (UACC-257 melanoma): > 100 µM
- TGI (UACC-62 melanoma): > 100 µM
- TGI (UO-31 renal): > 100 µM
